In patent publication US4029671A, “3-[(5-nitro-2-imidazolyl)pyrazol-5-yl]oxamic acid derivatives” (priority 1976, dated 1977):
≈ marks a conversion by molar mass, not a printed value. Counter-ions that a name gives are not always drawn.

Assays:
Assay in all cases: Agar dilution susceptibility of anaerobic bacteria (Chart 1)
Format in all cases: cell-based
[1] = system: Bacteroides fragilis sp. fragilis 9; conditions: agar dilution, 37° C., Bacteroides fragilis sp. fragilis 9; for MIC: Bacteroides fragilis, 24 h, read-out: 24 Hr. MIC
[2] = system: Bacteroides fragilis sp. fragilis 1936B; conditions: agar dilution, 37° C., Bacteroides fragilis sp. fragilis 1936B; for MIC: Bacteroides fragilis, 24 h, read-out: 24 Hr. MIC
[3] = system: Bacteroides fragilis sp. fragilis 108; conditions: agar dilution, 37° C., Bacteroides fragilis sp. fragilis 108; for MIC: Bacteroides fragilis, 24 h, read-out: 24 Hr. MIC
[4] = system: Bacteroides fragilis sp. thetaiotaomicron 1438; conditions: agar dilution, 37° C., Bacteroides fragilis sp. thetaiotaomicron 1438; for MIC: Bacteroides fragilis, 24 h, read-out: 24 Hr. MIC
[5] = system: Bacteroides fragilis sp. fragilis 113; conditions: agar dilution, 37° C., Bacteroides fragilis sp. fragilis 113; for MIC: Bacteroides fragilis, 24 h, read-out: 24 Hr. MIC
[6] = system: Clostridium septicum 1128; conditions: 37° C.; for MIC: Clostridium septicum, 1128, 24 h
Experimental: The susceptibility of anaerobic bacteria, both gram positive and gram negative, to a representative number of the novel compounds of this application was determined using the agar dilution method. The bacteria used were isolated from patients hospitalized at the Indiana Univerisity Medical Center. The isolates were identified in the anaerobe laboratory of the Medical Center by the criteria established by Dowell et al., Laboratory Methods in Anaerobic Bacteriology. Public Health Serv. Publ. NO. 1803 (1968) [Center for Disease Control, Atlanta, Ga.]; and by Smith et al., The Pathogenic Anaerobic Bacteria, pages 96- 136 (1968) [Charles C. Thomas, Publisher, Springfield, Ill.]. All the organisms were maintained in chopped meat glucose medium (Scott Labs) at room temperature.
The method used for the agar dilution tests was based on the studies of Sutter et al., Antimicrob. Ag. Chemother. 3, 188-193 (1973). The strains of anaerobic bacteria were grown in 16×× 120 mm. tubes for 16 to 18 hours in Thioglycolate medium without indicator-- 135C (Becton, Dickinson and Co.), to which was added 5 mcg. of hemin per milliliter prior to autoclaving, plus 1 mg. of sodium bicarbonate and 0.1 mcg. of filter-sterilized menadione per milliliter after autoclaving. The strains were adjusted to the turbidity of the No. 1 McFarland standard in Thioglycolate medium without indicator-- 135C containing an additional 0.13 percent Bacto-agar (Difco). Each strain was then applied to the surface of the petri plate (100 mm× 15 mm.) by means of a replicator.
For the agar dilution studies, two-fold dilutions of the test compounds were prepared in deionized water to which was then added laked sheep blood and filter-sterilized menadione so the concentrations after the agar dilution were 5 percent and 10 mcg./ml. respectively. An equal volume of double strength Brucella agar (Becton, Dickinson and Co.) was mixed with each dilution in a water bath held at 50° C. and then poured onto the petri dishes.
All of the procedures were done inside a plastic glove box, except for the incubation of the growth tubes and the pouring of the plates. After the plates hardened, they were put inside the glove box for a minimum of 2 hours before they were inoculated. Generally, the glove box procedures of Aranki et al., Applied Microbiology 17, 568-576 (1969), were followed, but the following modifications were used. Dry materials were introduced into the glove box by evacuating the lock to 28 inches of mercury and filling once with nitrogen gas, followed by evacuating in the same manner and filling with an 80 percent nitrogen plus 10 percent CO2 plus 10 percent hydrogen gas mixture. Liquid media and agar plates were introduced into the glove box by evacuating the lock to 10 inches of mercury and filling with gas four times. The nitrogen gas was used to fill the lock for the first two cycles of evacuation, with the gas mixture described above used for the final two fillings.
All the plates were incubated at 37° C. in Gas Pak jars (Becton, Dickinson and Co.) containing palladium-coated alumina catalysts (reactivated after each use). The results of the agar dilution tests were read after about 24 hours of incubation. The minimum inhibitory concentration (MIC) was recorded as the lowest concentration of test compound at which there was no growth.
The test compounds are identified by the number of the example describing their preparation. The antibiotics clindamycin (C), and erythromycin (E) were also run simultaneously with the novel compounds of this application,for comparison purposes, and the results are included in Chart 1 below.

[7] = system: Bacteroides fragilis sp. fragilis 112; conditions: agar dilution, 37° C., Bacteroides fragilis sp. fragilis 112; for MIC: Bacteroides fragilis, 24 h, read-out: 24 Hr. MIC
[8] = system: Bacteroides corrodens 1874; conditions: agar dilution, 37° C., Bacteroides corrodens 1874; for MIC: Eikenella corrodens, 1874, 24 h, read-out: 24 Hr. MIC
[9] = system: Bacteroides fragilis sp. fragilis 1877; conditions: agar dilution, 37° C., Bacteroides fragilis sp. fragilis 1877; for MIC: Bacteroides fragilis, 24 h, read-out: 24 Hr. MIC

| SMILES | MIC [1] | 24 Hr. MIC [2] | MIC [3] | MIC [4] | MIC [5] | MIC [6] | MIC [7] | 24 Hr. MIC [8] | MIC [9] | MIC [2] | 24 Hr. MIC [6] | MIC [8] | also measured |
| --- | --- | --- | --- | --- | --- | --- | --- | --- | --- | --- | --- | --- | --- |
| CCOC(=O)C(=O)Nc1c(C#N)c(-c2ncc([N+](=O)[O-])n2C)nn1C [Example 2, N-[4-Cyano-1-methyl-3-(1-methyl-5-nitroimidazol-2-yl)pyrazol-5-yl]oxamic acid, ethyl ester, sodium salt] |  |  |  |  |  |  |  |  |  |  |  |  | 24 Hr. MIC ([1]; sodium salt): 0.5 µg/mL; 24 Hr. MIC ([2]; sodium salt): ≤ 0.25 µg/mL; 24 Hr. MIC ([3]; sodium salt): 0.25 µg/mL; 24 Hr. MIC ([4]; sodium salt): 0.25 µg/mL; 24 Hr. MIC ([5]; sodium salt): 0.25 µg/mL; 24 Hr. MIC ([6]; sodium salt): > 64 µg/mL; 24 Hr. MIC ([7]; sodium salt): 0.25 µg/mL; 24 Hr. MIC ([8]; sodium salt): ≤ 0.25 µg/mL; 24 Hr. MIC ([9]; sodium salt): 0.5 µg/mL |
| Cn1nc(-c2ncc([N+](=O)[O-])n2C)c(C#N)c1NC(=O)C(=O)NN [Example 6, 5-[4-Cyano-1-methyl-3-(1-methyl-5-nitroimidazol-2-yl)pyrazol5-yl]semioxamazide] | 0.25 µg/mL (≈ 0.75 µM) | ≤ 0.25 µg/mL | 0.5 µg/mL (≈ 1.5 µM) | 1 µg/mL (≈ 3 µM) | 0.25 µg/mL (≈ 0.75 µM) | > 128 µg/mL | 0.5 µg/mL (≈ 1.5 µM) | ≤ 0.25 µg/mL | 0.5 µg/mL (≈ 1.5 µM) |  |  |  |  |
| CCOC(=O)C(=O)Nc1c(C#N)c(-c2ncc([N+](=O)[O-])n2C)nn1C [Example 1, N-[4-Cyano-1-methyl-3-(1-methyl-5-nitroimidazol-2-yl)pyrazol-5-yl]oxamic acid, ethyl ester] | 0.25 µg/mL (≈ 0.72 µM) |  | 0.125 µg/mL (≈ 0.36 µM) | 0.25 µg/mL (≈ 0.72 µM) | 0.25 µg/mL (≈ 0.72 µM) |  | 0.125 µg/mL (≈ 0.36 µM) |  | 0.25 µg/mL (≈ 0.72 µM) | ≤ 0.25 µg/mL | > 128 µg/mL | ≤ 0.25 µg/mL |  |
| CCC[C@@H]1C[C@@H](C(=O)N[C@@H]([C@H]2O[C@H](SC)[C@H](O)[C@@H](O)[C@H]2O)[C@H](C)Cl)N(C)C1 [C, clindamycin, reference compound] | 0.125 µg/mL (≈ 0.294 µM) |  | 0.125 µg/mL (≈ 0.294 µM) | 0.5 µg/mL (≈ 1.18 µM) | 0.125 µg/mL (≈ 0.294 µM) | 8 µg/mL (≈ 18.8 µM) | 0.25 µg/mL (≈ 0.588 µM) |  | 0.25 µg/mL (≈ 0.588 µM) | ≤ 0.5 µg/mL |  | ≤ 0.5 µg/mL |  |
| Cn1nc(-c2ncc([N+](=O)[O-])n2C)c(C#N)c1NC(=O)C(=O)c1ccccc1 [Example 10, N-[4-cyano-1-methyl-3-(1-methyl-5-nitroimidazol-2-yl)pyrazol-5-yl]-2-phenylglyoxylamide] | ≤ 0.03 µg/mL | 2 µg/mL | ≤ 0.03 µg/mL |  |  |  | ≤ 0.03 µg/mL | 1.0 µg/mL | ≤ 0.03 µg/mL |  | 1.0 µg/mL |  | 24 Hr. MIC [4]: ≤ 0.03 µg/mL; 24 Hr. MIC [5]: ≤ 0.03 µg/mL |
